Data published in patent publication US20110098360A1, “ADAMANTANE DERIVATIVE FOR INHIBITING TOXICITY OF AMYLOID OLIGOMER” (NANODIAMOND, INC., priority 2008, published 2011).

Columns and labels:
[1] = test system: H19-7 cells; assay: FLIM of single live H19-7 cell in the presence of (Aβ)12 and adamantane derivatives; assay type: cell-based, rat; settings: for aspect ratio of single live cell: H19-7 cell treated with beta amyloid oligomer, FIG. 8; for apoptosis / toxicity of (Aβ)12 on single cell (fluorescence images): H19-7 cell, 33 nM (Aβ)12 plus adamantane derivative, FIG. 7
Description: (Aβ)12 was prepared according to a known method. Specifically, synthetic Aβ1-42 peptide (Biopeptide Co.) was suspended at room temperature in 100% 1, 1, 1, 3,3,3-hexafluoro-2-propanol (HFIP). After incubation for 30 minutes, HFIP was removed by evaporating under mild nitrogen flow. Then, Aβ1-42 was suspended again in dimethyl sulfoxide (DMSO) at a concentration of 5 mM and then diluted with mM 2-[4-(2-hydroxyethyl)-1-piperazinyl]ethanesulfonic acid (HEPES; pH 7.4) to a final concentration of 110 μM. The resulting solution was incubated at 37° C. for 24 hours while stirring at 500 rpm using a micro stir bar. […] For cell culturing experiment, a 2 μM solution of (Aβ)12 was diluted using serum-free Dulbecco's modified Eagles medium (DMEM) to a final concentration of 33 nM, which corresponds to a monomer concentration of about 400 nM.
Rat hippocampal H19-7 cells were stored in DMEM containing 10% (v/v) fetal bovine serum (FBS). The cells were cultured to 80% colonies on a culture dish at low concentration in a 35° C. incubator of humidified 5% CO2 atmosphere. For fluorescence lifetime imaging microscopy (FLIM), the cells were cultured for a day after being transferred to a dish equipped with a poly-D-lysine-coated cover glass (MatTek Corporation). Before FLIM measurement, the cells were stained with 3 μM Cell Tracker Green CMFDA (Molecular Probes) solution and then incubated for 30 minutes in serum-free medium.
FLIM is a powerful tool for producing clear images of live cells. FLIM images were obtained at 40 MHz at an excitation wavelength of 467 nm (Picoquant PDL 800-B), using a band pass filter for 500-580 nm and a long pass emission filter for 473 nm (Semlock). A Nikon confocal microscope equipped with an oil-impregnated objective lens (NA 1.3) was used as a platform of an AFM scanner (PSIA). In FLIM measurement, time-correlated single photon counting is very important. […] The measurement was carried out after placing live cells on a poly-d-lysine-coated cover glass bottomed dish (MatTek Corporation) coated with and then filling serum-free medium diluted with PBS buffer.
For FLIM imaging, […] hippocampal cells (H19-7) were labeled with Cell Tracker Green having a relatively small pKa value.
In general, the degree of degeneration of neurons can be qualitatively analyzed based on the change in the aspect ratio of a single cell. The progression of neuronal death could be evaluated from the decrease in the aspect ratio.

[2] = test system: LTP in hippocampal CA1 region (Schaffer collateral pathway); assay: fEPSP / LTP extracellular recording in hippocampal CA1 transverse slice; parameters: species or system ICR mouse; settings: 1 hour after HFS
Description: Field excitatory postsynaptic potential (fEPSP) was measured in the CA1 region (Schaffer collateral pathway) of the hippocampus of an ICR mouse using the extracellular recording technique.
Hippocampal slice for fEPSP experiment was obtained from young (4-7 weeks old) male ICR mice. The mice were anesthetized with isoflurane prior to decapitation. After quickly taking out the brain of the mouse from the skull, the brain was cooled with ice and then put in a highly concentrated sucrose solution (sucrose 201 mM, KCl 3 mM, NaH2PO4 1.25 mM, MgCl2 3 mM, CaCl2 1 mM, NaHCO3 26 mM and D-glucose 10 mM) of pH 7.3 with oxygen (95% O2 and 5% CO2) supplied thereto. After isolating the hippocampus from the brain, transverse slices were obtained by cutting with a vibratome (Ted Pella, Redding, Calif., USA) in the high-concentration sucrose solution. Before extracellular recording, the transverse slice was incubated at 30° C. in a normal artificial cerebrospinal fluid (nACSF; NaCl 126 mM, KCl 3 mM, NaH2PO4 1.25 mM, MgSO4 1.3 mM, MgSO4 1.3 mM, CaCl2 2.4 mM, NaHCO3 26 mM and D-glucose 10 mM) of […] of pH 7.3 with oxygen supplied thereto. […]
In order to induce long-term potentiation (LTP), high-frequency stimulation (HFS, 2 trains, 100 Hz, 1s duration, 15 intervals) was applied with the same strength as that of the baseline experiment. Average LTP was calculated by averaging 20 fEPSP slopes at 55 to 60 minutes after the application of the high-frequency stimulation.
Extracellular field potential was recorded using a microelectrode AC amplifier model 1800 (A-M Systems, Inc., USA). The response signal was low-pass filtered at 5 kHz, digital sampled at 10 kHz using a Digidata 1322 A/D converter, and then analyzed using pCLAMP 9.0 software (Axon Instruments). […] The difference between two means was analyzed by an unpaired Student's t-test. p<0.05 was evaluated as significant. […]

[3] = test system: Aβ1-42; assay: In vivo test in Tg-APP/PS1 mice, ELISA of insoluble Aβ1-42; parameters: species or system Tg-APPswe/PS1dE9 mouse; settings: single ICV injection of TAMA (1.274 μg), 24 hours, prefrontal cortex, 7.5-month-old mice
Description: (§1) Transgenic APPswe/PS1dE9 (Tg-APP/PS1) mouse overexpressing human APP and PS1 mutations was crossbred with hybrid mouse of C57BL6 and C3H until the same genetic background as the original Tg-APP/PS1 mouse was attained. The mice were accommodated in a cage with temperature and humidity controlled and 12 hour night/day cycles (lighting began at 7 a.m.), 1 to 3 mice per cage. The mice were freely given water and feed. All the mice were handled according to the Guideline for Animal Breeding and Management of the College of Pharmacy, Ewha Womans University. […]
(§2) Quantification of Aβ by ELISA was performed according to the literature of Lee et al. (Lee et al., Neurobiol. Dis. 22, 10-24). […]
(§3) Aβ1-40 peptide and Aβ1-42 peptide concentrations were determined using […] Human β Amyloid Aβ1-40 and Aβ1-42 colorimetric sandwich ELISA kits (Signal Select™, BioSource, Camarillo, Calif., USA).
(§4) A and B respectively show the quantity of insoluble Aβ1-40 (A) and insoluble Aβ1-42 (B) in the prefrontal cortex of a 7.5-month-old Tg-APP/PS1 mouse to which TAMA was administered represented as % mol with respect to when only the vehicle was administered. […]

[4] = test system: Aβ1-40; assay: In vivo test in Tg-APP/PS1 mice, ELISA of insoluble Aβ1-40; parameters: species or system Tg-APPswe/PS1dE9 mouse; settings: single ICV injection of TAMA (1.274 μg), 24 hours, prefrontal cortex, 7.5-month-old mice
Description: as §1, §2, §3, §4

[5] = molecular target: T1, (Aβ)12 (Homo sapiens, UniProt P05067); assay: CD spectrum of (Aβ)12 after treatment with adamantane derivatives; settings: for change in the CD spectrum of (Aβ)12: (Aβ)12 treated with adamantane derivative, 37° C., 190-250 nm; for effect of deforming the β-turn structure (rank order): among the adamantane derivatives tested
T1 construct: purchased Biopeptide Co; host or cells: chemical synthesis; oligomerised in house (HFIP, DMSO, HEPES pH 7.4, 37 °C, 24 h)
Description: (Aβ)12 was prepared according to a known method. Specifically, synthetic Aβ1-42 peptide (Biopeptide Co.) was suspended at room temperature in 100% 1, 1, 1, 3,3,3-hexafluoro-2-propanol (HFIP). After incubation for 30 minutes, HFIP was removed by evaporating under mild nitrogen flow. Then, Aβ1-42 was suspended again in dimethyl sulfoxide (DMSO) at a concentration of 5 mM and then diluted with mM 2-[4-(2-hydroxyethyl)-1-piperazinyl]ethanesulfonic acid (HEPES; pH 7.4) to a final concentration of 110 μM. The resulting solution was incubated at 37° C. for 24 hours while stirring at 500 rpm using a micro stir bar. After centrifugation at 4000 g for 30 minutes, thus obtained 56-kDa Aβ1-42 dodecamer, i.e. (Aβ)12, was concentrated (50 kDa and 100 kDa cut-off). The presence of (Aβ)12 in the concentrated sample was identified by sodium dodecyl sulfate polyacrylamide gel electrophoresis (SDS-PAGE). Its spherical structure was confirmed by atomic force microscopy. For cell culturing experiment, a 2 μM solution of (Aβ)12 was diluted using serum-free Dulbecco's modified Eagles medium (DMEM) to a final concentration of 33 nM, which corresponds to a monomer concentration of about 400 nM.
Circular dichroism (CD) spectra are useful in determining the secondary structure of proteins in solution. CD spectrum was obtained using a Jasco-810 instrument at high-sensitivity mode (5 mdeg), with a time constant of 4 s, at a scan rate of 100 nm/min, for 30 cycles. The spectrum was obtained at 37° C. in the wavelength region from 190 nm to 250 nm.
Referring to FIG. 5, when the amyloid oligomer was treated with the adamantane derivatives, the intensity of the positive band of the oligomer at 195 nm decreased and the positive band at 205 nm shifted toward longer wavelength. This means that the adamantane derivatives induce deformation of the oligomer structure by changing the configuration of the β-sheets. […] Although a detailed structure of the deformed oligomer is not clear, the decrease of intensity at 205 nm is due to the β-turn structure.

T1 sequence (P05067 672-713 limits assumed): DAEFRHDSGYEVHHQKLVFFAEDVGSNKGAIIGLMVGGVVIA

Molecule	aspect ratio of single live cell ([1]; after 120 minutes)	apoptosis / toxicity of (Aβ)12 on single cell (fluorescence images) [1]	fEPSP slope increase with respect to the baseline ([2]; 30 nM Aβ oligomer and 200 nM TAMA, N=9)	fEPSP slope increase with respect to the baseline ([2]; 200 nM TAMA without Aβ oligomer, N=4)	quantity of insoluble Aβ1-42 relative to vehicle (control) group [3]	quantity of insoluble Aβ1-40 relative to vehicle (control) group [4]	change in the CD spectrum of (Aβ)12 [5]	effect of deforming the β-turn structure (rank order) [5]	aspect ratio of single live cell ([1]; in 60 minutes)	fEPSP slope increase with respect to the baseline ([2]; 30 nM Aβ oligomer solution only, N=9)
NCC12CC3(CN)CC(CN)(C1)CC(CN)(C2)C3 [TAMA, 1,3,5,7-Tetrakis(aminomethyl)adamantane]	no decrease in the aspect ratio	not affected by the toxicity of the oligomer at all	170.4±13.72%	183.2±11.30%	87.8%	69.7%	negative band near 195 nm	TAMA>amantadine>memantine	–	–
NC12CC3CC(CC(C3)C1)C2 [amantadine, Amantadine]	–	–	–	–	–	–	broadening of the positive band from 205 nm to 215 nm	TAMA>amantadine>memantine	–	–
CC12CC3CC(C)(C1)CC(N)(C3)C2 [memantine]	–	comparable to or faster than in the presence of (Aβ)12 only	–	–	–	–	almost identical to that of the typical β-turn peptide	TAMA>amantadine>memantine	1.0	–
Aβ oligomer: 56-kDa Aβ1-42 dodecamer prepared from synthetic Aβ1-42 peptide; neurotoxic oligomer used as challenge	1.0	–	–	–	–	–	–	–	–	124.7±5.743%
